Patent US12338237B2, “Derivatives having 1,2,3,4-tetrahydronaphthalene moiety or pharmaceutically acceptable salt thereof and pharmaceutical compositions comprising the same” (YUHAN CORPORATION, priority 2019, dated 2025)
Like-named read-outs stand apart in the source and are kept apart here.

Key:
[1] = target: glucosylceramide synthase (GCS) (Homo sapiens (Human), UniProt Q16739); experiment: Evaluation of inhibitory activities against GCS (enzyme reaction with A549 cell lysate, NBD C6-ceramide, HPLC fluorescence); format: biochemical; conditions: GCS activity in A549 cell lysate, 37° C. for 90 minutes
glucosylceramide synthase (GCS), sequence (Q16739 whole entry, looked up): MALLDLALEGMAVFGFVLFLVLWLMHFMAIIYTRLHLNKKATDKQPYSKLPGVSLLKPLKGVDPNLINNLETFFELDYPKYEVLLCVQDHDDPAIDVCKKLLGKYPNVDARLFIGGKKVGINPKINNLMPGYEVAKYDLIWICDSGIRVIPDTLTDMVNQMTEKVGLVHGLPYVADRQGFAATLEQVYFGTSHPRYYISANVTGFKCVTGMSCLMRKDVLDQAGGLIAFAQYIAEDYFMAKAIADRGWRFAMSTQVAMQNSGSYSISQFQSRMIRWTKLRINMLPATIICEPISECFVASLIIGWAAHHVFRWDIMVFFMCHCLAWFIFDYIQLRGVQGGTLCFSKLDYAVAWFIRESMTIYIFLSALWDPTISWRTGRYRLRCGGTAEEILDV
How it was run: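 Lysate of A549 cells in 50 mM HEPES pH 7.3 incubated with test compound and NBD C6-ceramide at 37 °C for 90 min; lipids extracted with chloroform/methanol and GlcCer and ceramide peaks quantified by HPLC fluorescence. Activity from GlcCer area fraction, normalised between DMSO and ibiglustat controls.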

GM1 production = experiment: cells; format: cell-based

Work on `CC1(C)CCc2cc(-c3cccc(F)c3)ccc2C1NC(=O)O[C@@H]1CN2CCC1CC2` (stereo partly drawn) [Example 90, (S)-quinuclidin-3-yl (6-(3-fluorophenyl)-2,2-dimethyl-1,2,3,4-tetrahydronaphthalen-1-yl)carbamate] yielded an IC50 [1] of 1.01 nM and an IC50 (GM1 production; Homo sapiens, Jurkat, 72 h) of 4.89 nM.
`O=C(NC1CCCc2ccc(-c3ccc(F)cc3F)cc21)O[C@@H]1CN2CCC1CC2` (stereo partly drawn) [Example 65, (S)-quinuclidin-3-yl (7-(2,4-difluorophenyl)-1,2,3,4-tetrahydronaphthalen-1-yl)carbamate] showed an IC50 [1] of 14.2 nM and an IC50 (GM1 production; Homo sapiens, Jurkat, 72 h) of 95.5 nM.
`COCOc1cccc(-c2ccc3c(c2)C(NC(=O)O[C@@H]2CN4CCC2CC4)C(C)(C)CC3)c1` (stereo partly drawn) [Example 169, (S)-quinuclidin-3-yl (7-(3-(methoxymethoxy)phenyl)-2,2-dimethyl-1,2,3,4-tetrahydronaphthalen-1-yl)carbamate] was tested, and the IC50 [1] was 40.9 nM and the IC50 (GM1 production; Homo sapiens, Jurkat, 72 h) was 442 nM.
`COCCOc1ccccc1-c1ccc2c(c1)CCC(C)(C)C2NC(=O)O[C@@H]1CN2CCC1CC2` (stereo partly drawn) [Example 112, (S)-quinuclidin-3-yl (6-(2-(2-methoxyethoxy)phenyl)-2,2-dimethyl-1,2,3,4-tetrahydronaphthalen-1-yl)carbamate] was tested, and the IC50 [1] was 3.75 nM and the IC50 (GM1 production; Homo sapiens, Jurkat, 72 h) was 0.802 nM.
`CC1(C)CCc2ccc(-c3ccc(C(F)(F)F)cc3)cc2C1NC(=O)O[C@@H]1CN2CCC1CC2` (stereo partly drawn) [Example 153, (S)-quinuclidin-3-yl (2,2-dimethyl-7-(4-(trifluoromethyl)phenyl)-1,2,3,4-tetrahydronaphthalen-1-yl)carbamate] was tested, and the IC50 [1] was 4.43 nM and the IC50 (GM1 production; Homo sapiens, Jurkat, 72 h) was 5.54 nM.
`O=C(NC1CCCc2ccc(-c3ccc(F)cc3)cc21)O[C@@H]1CN2CCC1CC2` (stereo partly drawn) [Example 55, (S)-quinuclidin-3-yl (7-(4-fluorophenyl)-1,2,3,4-tetrahydronaphthalen-1-yl)carbamate] showed an IC50 [1] of 34.1 nM and an IC50 (GM1 production; Homo sapiens, Jurkat, 72 h) of 110 nM.
In the case of `COc1ccc(-c2ccc3c(c2)CCC(C)(C)C3NC(=O)O[C@@H]2CN3CCC2CC3)cc1F` (stereo partly drawn) [Example 126, (S)-quinuclidin-3-yl (6-(3-fluoro-4-methoxyphenyl)-2,2-dimethyl-1,2,3,4-tetrahydronaphthalen-1-yl)carbamate], the IC50 [1] is reported as 0.83 nM and the IC50 (GM1 production; Homo sapiens, Jurkat, 72 h) is reported as 1.89 nM.
`O=C(NC1CCCc2ccc(-c3cc(F)cc(F)c3)cc21)O[C@@H]1CN2CCC1CC2` (stereo partly drawn) [Example 68, (S)-quinuclidin-3-yl (7-(3,5-difluorophenyl)-1,2,3,4-tetrahydronaphthalen-1-yl)carbamate] gave an IC50 [1] of 63.5 nM and an IC50 (GM1 production; Homo sapiens, Jurkat, 72 h) of 276 nM.
`O=C(NC1c2ccc(-c3ccc(Cl)cc3)cc2CCC12CC2)O[C@@H]1CN2CCC1CC2` (stereo partly drawn) [Example 187, (S)-quinuclidin-3-yl (6′-(4-chlorophenyl)-3′,4′-dihydro-1′H-spiro[cyclopropane-1,2′-naphthalen]-1′-yl)carbamate] showed an IC50 [1] of 13.9 nM and an IC50 (GM1 production; Homo sapiens, Jurkat, 72 h) of 35.5 nM.
`CC(C)Oc1ccc(-c2ccc3c(c2)CCC2(CC2)C3NC(=O)O[C@@H]2CN3CCC2CC3)cc1` (stereo partly drawn) [Example 219, (S)-quinuclidin-3-yl (6′-(4-isopropoxyphenyl)-3′,4′-dihydro-1′H-spiro[cyclopropane-1,2′-naphthalen]-1′-yl)carbamate] showed an IC50 [1] of 1.1 nM and an IC50 (GM1 production; Homo sapiens, Jurkat, 72 h) of 16 nM.
In the case of `CC1(C)CCc2ccc(-c3ccc(Cl)cc3)cc2C1NC(=O)O[C@@H]1CN2CCC1CC2` (stereo partly drawn) [Example 152, (S)-quinuclidin-3-yl (7-(4-chlorophenyl)-2,2-dimethyl-1,2,3,4-tetrahydronaphthalen-1-yl)carbamate], the IC50 [1] is reported as 5.72 nM and the IC50 (GM1 production; Homo sapiens, Jurkat, 72 h) is reported as 25.9 nM.
`COc1cccc(-c2ccc3c(c2)CCC(C)(C)C3NC(=O)O[C@@H]2CN3CCC2CC3)c1` (stereo partly drawn) [Example 121, (S)-quinuclidin-3-yl (6-(3-methoxyphenyl)-2,2-dimethyl-1,2,3,4-tetrahydronaphthalen-1-yl)carbamate] gave an IC50 [1] of 5.51 nM and an IC50 (GM1 production; Homo sapiens, Jurkat, 72 h) of 0.0387 nM.
With `CC(C)(C)Oc1cc(-c2cc3c(cc2F)C(NC(=O)O[C@@H]2CN4CCC2CC4)C(C)(C)CC3)ccn1` (some centres unmarked) [Example 231] the IC50 [1] was 0.86 nM and the IC50 (GM1 production; read-out: IC50) was 3.8 nM.
